Test results: ChEMBL document CHEMBL4680264, “Progress toward a Glycoprotein VI Modulator for the Treatment of Thrombosis” (J Med Chem, 2020)
Values belong to the compound of their own block, whether it stands above or below them.

What was measured:
[1] = Inhibition of ADP-stimulated human platelet aggregation assessed as ADP light transmission at 50 uM preincubated for 5 min followed by ADP stimulation by light transmission aggregometry (reference value: 62 +/- 3%); type: functional; design: scale not given: the % may be the effect or the level left
[2] = molecular target: T1, Thromboxane A2 receptor (Homo sapiens) (UniProt P21731); assay: Modulation of TxA2 receptor in human platelet suspension assessed as lowest concentration that reduced U46619-induced platelet aggregation preincubated for 5 min followed by U46619 stimulation by light transmission aggregometry; type: tissue-based; conditions: filed as modulator
T1 sequence (whole entry): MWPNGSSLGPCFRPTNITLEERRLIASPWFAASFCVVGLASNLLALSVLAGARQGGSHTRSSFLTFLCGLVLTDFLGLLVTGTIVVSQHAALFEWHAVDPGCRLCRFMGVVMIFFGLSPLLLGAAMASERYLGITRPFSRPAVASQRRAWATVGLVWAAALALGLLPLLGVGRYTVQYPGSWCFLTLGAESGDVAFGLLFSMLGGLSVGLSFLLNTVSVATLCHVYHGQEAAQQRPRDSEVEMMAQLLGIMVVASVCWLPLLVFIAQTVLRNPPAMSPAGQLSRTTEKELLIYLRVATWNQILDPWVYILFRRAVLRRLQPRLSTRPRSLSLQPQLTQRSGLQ

[3] = molecular target: T2, Platelet glycoprotein VI (Homo sapiens, UniProt Q9HCN6); assay: Binding affinity to recombinant GP6 (unknown origin) at protein to compound ratio of 1 : 1 to 1 : 10 by 2D 15N-1H TROSY-HSQC NMR spectroscopy
T2 sequence (Q9HCN6 whole entry): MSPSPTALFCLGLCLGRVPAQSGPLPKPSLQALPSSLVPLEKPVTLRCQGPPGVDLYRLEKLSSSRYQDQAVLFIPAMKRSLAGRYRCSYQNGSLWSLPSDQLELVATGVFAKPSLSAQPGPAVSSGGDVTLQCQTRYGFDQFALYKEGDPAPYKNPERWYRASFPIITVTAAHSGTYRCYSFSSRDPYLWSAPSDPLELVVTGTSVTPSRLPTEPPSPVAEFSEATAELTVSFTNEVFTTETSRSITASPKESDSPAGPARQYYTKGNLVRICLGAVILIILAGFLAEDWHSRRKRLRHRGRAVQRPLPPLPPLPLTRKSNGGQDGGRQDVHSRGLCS

[4] = Modulation of GP6 in porcine platelet-rich plasma assessed as reduction in convulxin-induced platelet aggregation; type: tissue-based; conditions: Sus scrofa
[5] = Modulation of GP6/FcRgamma in human platelet-rich plasma assessed as reduction in convulxin-induced platelet aggregation
[6] = molecular target: T2, Platelet glycoprotein VI; assay: Modulation of GP6 in human platelets assessed as reduction in convulxin-induced P-selectin expression preincubated for 20 mins followed by convulxin stimulation and measured after 1 min by Western blot analysis; type: tissue-based
[7] = Inhibition of collagen-induced human platelet aggregation preincubated for 20 mins followed by collagen stimulation and measured for 10 mins by aggregometry; type: functional, tissue-based
[8] = Inhibition of collagen-induced platelet aggregation in human platelet suspension preincubated for 10 mins followed by collagen stimulation by light transmission-based assay; type: functional, tissue-based
[9] = molecular target: T3, Platelet glycoprotein VI (Homo sapiens) (UniProt Q9HCN6); conditions: Plasma, filed as modulator, time 15.0 min
T3 sequence (whole entry): T2 sequence (Q9HCN6 whole entry)

[10] = Antagonist activity at GP6 in human platelet assessed as reduction in CRP-induced platelet-aggregation preincubated for 60 secs followed by […] by light transmission aggregometry
[11] = molecular target: T2, Platelet glycoprotein VI; assay: Binding affinity to human platelet lysate GP6 at 0.1 uM by surface plasmon resonance analysis; type: subcellular
[12] = Inhibition of ADP-induced platelet aggregation in rabbit platelet suspension preincubated for 10 mins followed by ADP stimulation by turbidimetric method; type: functional, tissue-based; conditions: Oryctolagus cuniculus
[13] = Inhibition of PAF-induced platelet aggregation in rabbit platelet suspension preincubated for 10 mins followed by PAF stimulation by turbidimetric method; type: functional, tissue-based; conditions: Oryctolagus cuniculus
[14] = Inhibition of arachidonic acid-induced platelet aggregation in rabbit platelet suspension preincubated for 10 mins followed by AA stimulation by turbidimetric method; type: functional, tissue-based; conditions: Oryctolagus cuniculus
[15] = Inhibition of collagen-induced platelet aggregation in human platelet suspension preincubated for 3 mins followed by collagen stimulation and measured after 6 mins by lumi-aggregometry; type: functional, tissue-based
[16] = molecular target: T2, Platelet glycoprotein VI; assay: Binding affinity to human platelet lysate GP6 at 100 uM by surface plasmon resonance analysis; type: subcellular
[17] = Inhibition of human platelet adhesion to immobilised CRP-XL at 1 umol/L preincubated for 4 mins followed by CRP-XL addition and measured after 45 mins relative to control; type: functional; conditions: 49 min, dose 1 µmol/L
[18] = Inhibition of human platelet lamellipodia formation on CRP-XL 1 umol/L preincubated for 4 mins followed by CRP-XL addition and measured after 45 mins (reference value: 69%); type: functional; conditions: dose 1 µmol/L, time 49 min, at 1 µM
[19] = molecular target: T1, Thromboxane A2 receptor (Homo sapiens); assay: Inhibition of [3H]-U46619 binding to TxA2 receptor in human platelet suspension at 0.3 uM incubated for 30 mins by liquid scintillation counting method relative to control; type: tissue-based
[20] = molecular target: T1, Thromboxane A2 receptor (Homo sapiens); assay: Inhibition of [3H]-U46619 binding to TxA2 receptor in human platelet suspension at 0.7 uM incubated for 30 mins by liquid scintillation counting method relative to control; type: tissue-based
[21] = Inhibition of ADP-induced platelet aggregation in human platelet suspension preincubated for 3 mins followed by […] and measured after 6 mins by lumi-aggregometry; type: functional, tissue-based
[22] = Inhibition of arachidonic acid-induced platelet aggregation in human platelet suspension preincubated for 3 mins followed by […] and measured after 6 mins by lumi-aggregometry; type: functional, tissue-based

Compound: CCOc1nc2cccc(C(=O)O)c2n1Cc1ccc(-c2ccccc2-c2nnn[nH]2)cc1
Activity [1]: 60%

Compound: CCCCC(=O)N(Cc1ccc(-c2ccccc2-c2nnn[nH]2)cc1)[C@H](C(=O)O)C(C)C
MEC [2]: 50 µM | Activity [1]: 53% | Kd [3]: 100 µM

Compound: Cc1cccc(Nc2nc(N[C@@H]3CCCC[C@@H]3N)ncc2C(N)=O)c1
IC50 [4]: 0.35 µM | IC50 [5]: 2.5 µM | IC50 [6]: 0.048 µM

Compound: C/C(O)=C(\C#N)C(=O)Nc1cc(Br)ccc1Br
IC50 [7]: 2.8 µM

Compound: O=C(O)c1ccccc1-c1ccccc1
Kd [3]: 1500 µM

Compound: c1ccc(-c2cccc(-c3nn[nH]n3)c2)cc1
Kd [3]: 80 µM

Compound: c1ccc(CCOc2ccc(-c3ccccc3-c3nn[nH]n3)cc2)cc1
Kd [3]: 52 µM

Compound: O=C(O)Cc1cccc(OCCCN(Cc2cccc(C(F)(F)F)c2Cl)CC(c2ccccc2)c2ccccc2)c1
IC50 [8]: 0.03 µM

Compound: CCCCc1nc(Cl)c(C=O)n1Cc1ccc(-c2ccccc2-c2nn[nH]n2)cc1
MEC [9]: 500 µM

Compound: CN(C)CCCSc1ccccc1NC(=O)/C=C/c1ccccc1 [CINANSERIN]
IC50 [10]: 35 µM

Compound: C=CC(=O)N1CCC[C@@H](n2nc(-c3ccc(Oc4ccccc4)cc3)c3c(N)ncnc32)C1 [IBRUTINIB]
inhibition at 1 µM [17]: 70% | inhibition (INH) [18]: 11%

Compound: CCCCc1nc(Cl)c(CO)n1Cc1ccc(-c2ccccc2-c2nnn[nH]2)cc1 [LOSARTAN]
MEC [9]: 500 µM | inhibition [20]: 50% | MEC [2]: 0.5 µM | Activity [1]: 39%

Compound: CC(C)=CCC/C(C)=C/C=C/C(C)=C/C=C/C(C)=C/C=C/C=C(C)/C=C/C=C(C)/C=C/C=C(\C)CCC=C(C)C [LYCOPENE]
IC50 [21]: 6.2 µM | IC50 [15]: 5.8 µM | IC50 [22]: 6.8 µM

Compound: H-YSDTDWLYFSTS-OH
Kd [3]: 57 µM

Further lines, with some results ahead:

MEC [2]: 5 µM
Compound: CCCc1nc2c(C)cc(-c3nc4ccccc4n3C)cc2n1Cc1ccc(-c2ccccc2C(=O)O)cc1
Activity [1]: 48%

Kd [3]: 1100 µM
Compound: Cc1ccccc1-c1nn[nH]n1

Kd [3]: 360 µM
Compound: c1ccc(-c2ccccc2-c2nn[nH]n2)cc1

Kd [3]: 850 µM
Compound: c1ccc(CCCCOc2ccc(-c3ccccc3-c3nn[nH]n3)cc2)cc1

Kd [11]: 0.0411 µM
Compound: NCCCC(=O)O [GAMMA-AMINOBUTYRIC ACID]

IC50 [12]: 4.4 µM | IC50 [13]: 13.7 µM | IC50 [14]: 14.1 µM
Compound: C=C1C(=O)[C@@]23[C@H](O)C[C@@H]4C(C)(C)C(=O)CC[C@@]4(C)[C@@H]2CC[C@@H]1[C@H]3O [GLAUCOCALYXIN A]

IC50 [15]: 0.6 µM | Kd [16]: 289 µM
Compound: C=CCc1ccc(O)c(-c2ccc(O)c(CC=C)c2)c1 [HONOKIOL]

inhibition [19]: 50% | MEC [2]: 0.5 µM
Compound: CCCCC1=NC2(CCCC2)C(=O)N1Cc1ccc(-c2ccccc2-c2nnn[nH]2)cc1 [IRBESARTAN]
Activity [1]: 38%

Kd [3]: 300 µM
Compound: CCCc1nc(C(C)(C)O)c(C(=O)O)n1Cc1ccc(-c2ccccc2-c2nnn[nH]2)cc1 [OLMESARTAN]

IC50 [8]: > 0.05 µM
Compound: O=S(=O)(c1ccccc1)N(CC(F)(F)F)c1ccc(C(O)(C(F)(F)F)C(F)(F)F)cc1 [T091317]
